# Where no end group is shown, it is not given here.
# Key:
# [1] = tested on: human Kv1.1 channel (hKv1.1); conditions: read-out: IC50 on Kv1.1; positive control applied at a concentration equivalent to its IC50; no reference given; cited from earlier work
# Experimental: (§4) Voltage protocols: For measurement of Kv1.1 to 1.3 currents, voltage steps to +50 mV were applied from a holding potential of −120 mV and the peak current was measured every 15 s. For Kv1.3 currents, 15-ms-long depolarizing pulses were applied. For Kv1.1, 50-ms-long–activating stimuli were used. Kv1.2 currents were evoked by 200-ms-long pulses. […] The remaining current fraction at a given molar concentration was calculated ...
# [2] = tested on: human Kv1.3 channel (hKv1.3); type: cell-based; conditions: TEA+ 10 mM, positive control; human lymphocytes
# Experimental: (§1) Human Kv1.3 currents were recorded from activated peripheral blood mononuclear cells (see below) 3 to 4 days after activation. Heparinized human peripheral venous blood was obtained from healthy volunteers. Mononuclear cells were separated through Histopaque-1077 density gradient centrifugation. Collected cells were washed twice with Ca^2+- and Mg^2+-free Hanks’ solution containing 25 mM Hepes buffer, pH 7.4. Cells were cultured for 3 to 4 days in 24-well culture plates in a 5% CO2 incubator at 37 °C, in RPMI 1640 medium supplemented with 10% fetal calf serum (Sigma-Aldrich), 100 μg/ml penicillin, 100 μg/ml streptomycin, and 2 mM L-glutamine (density, 0.5 × 10^6 cells per ml). Phytohemagglutinin A (Sigma-Aldrich) was added to the medium at 10 μg/ml to amplify the Kv1.3 expression. Cells were washed gently twice with 2 ml of ECS for the patch-clamp experiments.
# (§2) Conventional whole-cell patch-clamp electrophysiology was used to record ionic currents. Micropipettes were pulled from GC150F-7.5 borosilicate capillaries (Harvard Apparatus) with tip diameters between 0.5 and 1 μm resulting in a tip resistance of 2 to 8 MΩ in the extracellular (bath) solution. All measurements were carried out by using Axopatch 200B amplifier connected to a personal computer using Axon Digidata 1550A data acquisition hardware and Pclamp10.7 software (https://support.moleculardevices.com/s/article/Axon-pCLAMP-10-Electrophysiology-Data-Acquisition-Analysis-Software-Download-Page). The holding potential was −120 mV. Records were discarded when leak at the holding potential was >10% of peak current at the test potential. Experiments were performed at room temperature (20–24 °C). Before analysis, whole-cell current traces were corrected for ohmic leakage and digitally filtered with a three-point boxcar smoothing filter.
# Solutions: all salts and components of the solutions were purchased from Sigma Aldrich. […]
# Native peptides, phage-expressed peptides, and positive controls used for them were dissolved in ECS supplemented with 0.1 mg/ml bovine serum albumin (BSA; Sigma-Aldrich Hungary). Bath perfusion around the measured cell with different extracellular solutions was achieved using a gravity flow micro perfusion system using a rate of 0.5 ml/min. […]
# (§3) Voltage protocols: For measurement of Kv1.1 to 1.3 currents, voltage steps to +50 mV were applied from a holding potential of −120 mV and the peak current was measured every 15 s. […] The remaining current fraction at a given molar concentration was calculated as I/I0, where I0 is the peak current in the absence and I is the peak current at equilibrium block or […] after ∼2 min perfusion by the investigated peptide/phage.
# [3] = tested on: human Kv1.3 channel (hKv1.3); conditions: read-out: IC50 on Kv1.3; positive control applied at a concentration equivalent to its IC50; no reference given; cited from earlier work
# Experimental: as §4
# [4] = target: T1, KcsA-Kv1.3 T-only chimera (Streptomyces lividans, UniProt P0A334, A54D/A57S/G53D/G56T/I60S/L59F/Q58G/R52A/R64D/T61S/Y62I); assay: Phage ELISA-binding assay, KcsA-Kv1.3 T-only; design: species or system human Kv1.3 turret in Streptomyces lividans KcsA; conditions: toxin displayed on M13 phage
# T1 construct: made in house; host or cells: E. coli XL1-Blue (pQE30)
# T1 sequence (P0A334 1-160 R52A/G53D/A54D/G56T/A57S/Q58G/L59F/I60S/T61S/Y62I/R64D): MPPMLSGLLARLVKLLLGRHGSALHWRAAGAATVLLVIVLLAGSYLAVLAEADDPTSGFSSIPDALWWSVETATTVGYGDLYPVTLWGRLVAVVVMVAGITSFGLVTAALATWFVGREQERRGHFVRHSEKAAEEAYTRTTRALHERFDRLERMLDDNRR
# Experimental: Phage display test solutions were prepared according to routine phage display protocols ([62]). Phosphorylated and annealed oligonucleotides encoding the peptide construct were ligated into linearized pAS62 phagemid vector (https://patents.google.com/patent/WO2022144560A1/en) at a vector/insert ratio of 1:3. The final phagemid construct harbored a signal sequence followed by the peptide of interest, a linker sequence ([…]), and the C-terminal part of the P3 coat protein (amino acids: 216-424 of NP_510891.1). […] The particle concentrations of phage solutions were determined using a NanoDrop One C (Thermo Fisher Scientific) spectrophotometer. The phage particle concentration was assessed according to the formula: (A268–A320) × 5 × 10^12 particles/ml ([62]). […]
# Phage stock solutions were diluted to working concentration with phage resuspension buffer supplemented with 2 mM DDM. […] Following blocking, the wells were washed 4× with washing buffer (300 μl TBS-Tween, 0.1% v/v) using a Wellwash Versa microplate washer (Thermo Fisher Scientific); then 50 μl phage solution (in TBS-BSA-Tween, 0.1% v/v, 2 mM DDM) at determined phage concentration was added to the wells and incubated for 1 h at room temperature on a horizontal shaker. […]
# [5] = tested on: human Kv1.3 channel (hKv1.3); assay: Whole-cell patch-clamp of phage-displayed toxins, hKv1.3 in human lymphocytes; type: cell-based; conditions: perfusion concentration; phage-displayed toxin; experimentally titrated; N = 3
# Experimental: as §1, §2
# Solutions: all salts and components of the solutions were purchased from Sigma Aldrich. The extracellular (bath) solution (ECS) contained 145 mM NaCl, 5 mM KCl, 2.5 mM CaCl2, 1 mM MgCl2, 10 mM Hepes, and 5.5 mM glucose (pH 7.35 with NaOH), while the intracellular (pipette) solution (ICS) contained 140 mM KF, 2 mM MgCl2, 1 mM CaCl2, 11 mM EGTA, and 10 mM Hepes (pH 7.22 with KOH). The osmolarity of the ECS and ICS were 302 mOsM.
# Native peptides, phage-expressed peptides, and positive controls used for them were dissolved in ECS supplemented with 0.1 mg/ml bovine serum albumin (BSA; Sigma-Aldrich Hungary). Bath perfusion around the measured cell with different extracellular solutions was achieved using a gravity flow micro perfusion system using a rate of 0.5 ml/min. Excess fluid was removed continuously.
# as §3, with “s. For Kv1.3 currents, 15-ms-long depolarizing pulses were applied. For Kv1.1, 50-ms-long–activating stimuli were used. Kv1.2 currents were evoked by 200-ms-long pulses.” for “s.”
# Phage display test solutions were prepared according to routine phage display protocols ([62]). Phosphorylated and annealed oligonucleotides encoding the peptide construct were ligated into linearized pAS62 phagemid vector (https://patents.google.com/patent/WO2022144560A1/en) at a vector/insert ratio of 1:3. The final phagemid construct harbored a signal sequence followed by the peptide of interest, a linker sequence ([…]), and the C-terminal part of the P3 coat protein (amino acids: 216-424 of NP_510891.1). Chemically competent XL1-Blue E. coli cells (2022249, Agilent) were transformed with the ligation product and then streaked onto ampicillin (100 μg/ml) containing LB/Amp plates and incubated for 16 h at 37 °C.
# [6] = tested on: T+F chimera variant mutated at T84; assay: Phage binding to T84-mutated T+F chimera, pilot experiment; conditions: pilot experiment (not shown)
# Experimental: Phage stock solutions were diluted to working concentration with phage resuspension buffer supplemented with 2 mM DDM. For protein immobilization, the following amounts were used in a final volume of 50 μl/well: wt KcsA, 0.1 μg; KcsA-Kv1.1 T-only, 0.005 μg; KcsA-Kv1.1 T+F, 0.02 μg; KcsA-Kv1.2 T-only, 0.01 μg; KcsA-Kv1.2 T+F, 0.1 μg; KcsA-Kv1.3 T-only, 0.01 μg; and KcsA-Kv1.3 T+F, 0.1 μg. Protein samples were diluted in 50 μl of storage buffer (20 mM Tris pH8.0, 300 mM KCl, 2 mM DDM) and were added to the designated wells of a Pierce Clear, 96-Well Nickel Coated Plate (15442, Thermo Fisher Scientific), then incubated for 1 h at room temperature on a horizontal shaker at 130 rpm. The plate was blocked for 1 h at room temperature with 180 μl/well TBS-BSA supplemented with 1 mM DDM. Following blocking, the wells were washed 4× with washing buffer (300 μl TBS-Tween, 0.1% v/v) using a Wellwash Versa microplate washer (Thermo Fisher Scientific); then 50 μl phage solution (in TBS-BSA-Tween, 0.1% v/v, 2 mM DDM) at determined phage concentration was added to the wells and incubated for 1 h at room temperature on a horizontal shaker. […] The light absorbance signal was read at 450 nm with Byonoy absorbance 96 plate reader (Byonoy GmbH).
# [7] = tested on: human Kv1.2 channel (hKv1.2); conditions: positive control applied at a concentration equivalent to its IC50; no reference given; cited from earlier work
# Experimental: as §4
molecule,measurement,setting,value
"CC[N+](CC)(CC)CC [TEA+, tetraethylammonium]",IC50,[1],300 µM
same,inhibition of Kv1.3 current,[2],approximately 50%
same,IC50,[3],10000 µM
HgTX1-phage: HgTx1 fused to the P3 coat protein of M13 phage with an eight amino acid linker (TVIDVKCTSPKQCLPPCKAQFGIRAGAKCMNGKCKCYPH-{GSASSATR-M13 P3 coat protein (216-424)}; not fully specified; ends and bridges not checked),"phage binding to KcsA-Kv1.3 T-only, in words",[4],weaker binding
same,phage concentration giving approximate 50% block of hKv1.3 current,[5],~1.8 x 10^12 particle/ml
MTX-expressing phages: MTX displayed on M13 phage (VSCTGSKDCYAPCRKQTGCPNAKCINKSCKCYGC-{GSASSATR-M13 P3 coat protein (216-424)}; not fully specified; ends and bridges not checked),"binding to T+F chimera variant mutated at T84, in words",[6],did not diminish when T84 was mutated
charybdotoxin,IC50,[7],0.014 µM

# From publication PMC11002876, “KcsA-Kv1.x chimeras with complete ligand-binding sites provide improved predictivity for screening selective Kv1.x blockers” (The Journal of Biological Chemistry, 2024)
